Measurements published in patent US5922683A, “Multicyclic erythromycin derivatives” (Abbott Laboratories, priority 1998, dated 1999).

Experiments:
CANDIDA ALBICANS CCH 442 = experiment: In vitro antimicrobial activity (agar dilution MIC); type: cell-based; details: BHI agar, 35-37° C., 20 to 24 hours
Experimental: (§1) Representative compounds of the present invention were assayed in vitro for antibacterial activity as follows: Twelve petri dishes containing successive aqueous dilutions of the test compound mixed with 10 mL of sterilized Brain Heart Infusion (BHI) agar (Difco 0418-01-5) were prepared. Each plate was inoculated with 1:100 (or 1:10 for slow-growing strains, such as Micrococcus and Streptococcus) dilutions of up to 32 different microorganisms, using a Steers replicator block. The inoculated plates were incubated at 35-37° C. for 20 to 24 hours. In addition, a control plate, using BHI agar containing no test compound, was prepared and incubated at the beginning and end of each test.
(§2) An additional plate containing a compound having known susceptibility patterns for the organisms being tested and belonging to the same antibiotic class as the test compound was also prepared and incubated as a further control, as well as to provide test-to-test comparability. Erythromycin A was used for this purpose.
(§3) After incubation, each plate was visually inspected. The minimum inhibitory concentration (MIC) was defined as the lowest concentration of drug yielding no growth, a slight haze, or sparsely isolated colonies on the inoculum spot as compared to the growth control.

[1] = tested on: STAPHYLOCOCCUS AUREUS A5177; experiment: In vitro antibacterial activity (agar dilution MIC); type: cell-based; details: BHI agar, 35-37° C., 20 to 24 hours
Experimental: as §1, §2, §3

ESCHERICHIA COLI DC-2 = experiment: as above; type: cell-based; details: BHI agar, 35-37° C., 20 to 24 hours
Experimental: as §1, §2, §3

ESCHERICHA COLI SS = experiment: as above; type: cell-based; details: BHI agar, 35-37° C., 20 to 24 hours
Experimental: as §1, §2, §3

[2] = tested on: STAPHYLOCOCCUS AUREUS 1775; experiment: as above; type: cell-based; details: BHI agar, 35-37° C., 20 to 24 hours
Experimental: as §1, §2, §3

ESCHERICHIA COLI JUHL = experiment: as above; type: cell-based; details: BHI agar, 35-37° C., 20 to 24 hours
Experimental: as §1, §2, §3

[3] = tested on: STREPTOCOCCUS PYOGENES EES61; experiment: as above; type: cell-based; details: BHI agar, 35-37° C., 20 to 24 hours
Experimental: as §1, §2, §3

[4] = tested on: STAPHYLOCOCCUS AUREUS ATCC 6538P; experiment: as above; type: cell-based; details: BHI agar, 35-37° C., 20 to 24 hours
Experimental: as §1, §2, §3

STR[…] PIU 2548 = experiment: as above; type: cell-based; details: BHI agar, 35-37° C., 20 to 24 hours
Experimental: as §1, §2, §3

[5] = tested on: STREPTOCOCCUS BOVIS A-5169; experiment: as above; type: cell-based; details: BHI agar, 35-37° C., 20 to 24 hours
Experimental: as §1, §2, §3

STR[…] 930 = experiment: as above; type: cell-based; details: BHI agar, 35-37° C., 20 to 24 hours
Experimental: as §1, §2, §3

[6] = tested on: STAPHYLOCOCCUS AUREUS A-5278; experiment: as above; type: cell-based; details: BHI agar, 35-37° C., 20 to 24 hours
Experimental: as §1, §2, §3

Gram-negative bacteria = details: cited from earlier work
[7] = tested on: STAPHYLOCOCCUS AUREUS CMX 553; experiment: In vitro antibacterial activity (agar dilution MIC); type: cell-based; details: BHI agar, 35-37° C., 20 to 24 hours
Experimental: as §1, §2, §3

[8] = tested on: STAPHYLOCOCCUS EPIDERMIDIS 3519; experiment: as above; type: cell-based; details: BHI agar, 35-37° C., 20 to 24 hours
Experimental: as §1, §2, §3

N. ASTEROIDES ATCC 9970 = experiment: as above; type: cell-based; details: BHI agar, 35-37° C., 20 to 24 hours
Experimental: as §1, §2, §3

[9] = tested on: STAPHYLOCOCCUS AUREUS CMX 642A; experiment: as above; type: cell-based; details: BHI agar, 35-37° C., 20 to 24 hours
Experimental: as §1, §2, §3

[10] = tested on: MYCOBACTERIUM SMEGMATIS ATCC 114; experiment: as above; type: cell-based; details: BHI agar, 35-37° C., 20 to 24 hours
Experimental: as §1, §2, §3

[11] = tested on: STAPHYLOCOCCUS AUREUS NCTC10649M; experiment: as above; type: cell-based; details: BHI agar, 35-37° C., 20 to 24 hours
Experimental: as §1, §2, §3

Compound | minimum inhibitory concentration (MIC) (CANDIDA ALBICANS CCH 442) | minimum inhibitory concentration (MIC) [1] | minimum inhibitory concentration (MIC) (ESCHERICHIA COLI DC-2) | minimum inhibitory concentration (MIC) (ESCHERICHA COLI SS) | minimum inhibitory concentration (MIC) [2] | minimum inhibitory concentration (MIC) (ESCHERICHIA COLI JUHL) | minimum inhibitory concentration (MIC) [3] | minimum inhibitory concentration (MIC) [4] | minimum inhibitory concentration (MIC) (STR[…] PIU 2548) | minimum inhibitory concentration (MIC) [5] | minimum inhibitory concentration (MIC) (STR[…] 930) | minimum inhibitory concentration (MIC) [6] | activity against Gram-negative bacteria (Gram-negative bacteria) | minimum inhibitory concentration (MIC) [7] | minimum inhibitory concentration (MIC) [8] | minimum inhibitory concentration (MIC) (N. ASTEROIDES ATCC 9970) | minimum inhibitory concentration (MIC) [9] | minimum inhibitory concentration (MIC) [10] | minimum inhibitory concentration (MIC) [11]
CC[C@H]1OC(=O)[C@H](C)C(=O)[C@H](C)[C@@H](O[C@@H]2O[C@H](C)C[C@H](N(C)C)[C@H]2O)[C@](C)(OC)C[C@@H](C)C2Nc3ccccc3N3C(=O)O[C@@]1(C)[C@H]3[C@H]2C (single isomer, unassigned) [Ex 3] | > 100 | 25 | > 100 | 100 | > 100 | > 100 | 3.1 | 25 | 25 | 1.56 | > 100 | > 100 |  |  |  |  |  |  | 
CC[C@H]1OC(=O)[C@H](C)[C@@H](O[C@H]2C[C@@](C)(OC)[C@@H](O)[C@H](C)O2)[C@H](C)[C@@H](O[C@@H]2O[C@H](C)C[C@H](N(C)C)[C@H]2O)[C@](C)(O)C[C@@H](C)C(=O)[C@H](C)[C@@H](O)[C@]1(C)O [Ery A, Erythromycin A] |  |  |  |  |  |  |  |  |  |  |  |  | only weak activity |  |  |  |  |  | 
CC[C@H]1OC(=O)[C@H](C)C(=O)[C@H](C)[C@@H](O[C@@H]2O[C@H](C)C[C@H](N(C)C)[C@H]2O)[C@](C)(OC)C[C@@H](C)C2=Nc3ccccc3N3C(=O)O[C@@]1(C)[C@H]3[C@H]2C [Ex 2] | > 100 | 0.39 | > 100 | 1.56 | > 100 | > 100 | 0.1 | 0.39 | 0.39 | 0.1 | > 100 | > 100 |  | 0.39 | 0.39 | 0.39 | 0.39 | 3.1 | 0.39
CC[C@H]1OC(=O)[C@H](C)C(=O)[C@H](C)[C@@H](O[C@@H]2O[C@H](C)C[C@H](N(C)C)[C@H]2O)[C@](C)(OC)C[C@@H](C)C2=Nc3cc(C)ccc3N3C(=O)O[C@@]1(C)[C@H]3[C@H]2C [Ex 4] | > 100 | 0.78 | > 100 | 0.2 |  | > 100 |  | 0.78 | 0.2 |  | > 100 | > 100 |  |  |  | 0.1 | 0.78 | 100 | 0.78
CC[C@H]1OC(=O)[C@H](C)C(=O)[C@H](C)[C@@H](O[C@@H]2O[C@H](C)C[C@H](N(C)C)[C@H]2O)[C@](C)(OC)C[C@@H](C)C2=Nc3cc(OC)ccc3N3C(=O)O[C@@]1(C)[C@H]3[C@H]2C [Ex 5] | > 100 | 0.78 | > 100 | 50 | > 100 | > 100 | 0.02 | 0.78 | 0.39 | 0.02 | > 100 | > 100 |  | 0.78 | 0.78 | 0.2 | 0.78 | 1.56 | 0.78
CC[C@H]1OC(=O)[C@H](C)C(=O)[C@H](C)[C@@H](O[C@@H]2O[C@H](C)C[C@H](N(C)C)[C@H]2O)[C@](C)(OC)C[C@@H](C)C2=Nc3cc(C#N)ccc3N3C(=O)O[C@@]1(C)[C@H]3[C@H]2C [Ex 6] | > 100 |  | > 100 | 3.1 | > 100 | > 100 |  | 0.39 | 0.39 |  | > 100 | > 100 |  | 0.39 | 0.2 | 0.39 | 0.39 | 0.1 | 0.39
CC[C@H]1OC(=O)[C@H](C)C(=O)[C@H](C)[C@@H](O[C@@H]2O[C@H](C)C[C@H](N(C)C)[C@H]2O)[C@](C)(OC)C[C@@H](C)C2=Nc3cccnc3N3C(=O)O[C@@]1(C)[C@H]3[C@H]2C [Ex 7] | > 100 | 0.39 | > 100 | 0.78 | > 100 | > 100 | 0.05 | 0.39 | 0.39 | 0.05 | > 100 | > 100 |  | 0.39 | 0.39 | 0.1 | 0.39 | 3.1 | 0.39
C=CCO[C@]1(C)C[C@@H](C)C2=Nc3ccccc3N3C(=O)O[C@](C)([C@@H](CC)OC(=O)[C@H](C)C(=O)[C@H](C)[C@H]1O[C@@H]1O[C@H](C)C[C@H](N(C)C)[C@H]1O)[C@H]3[C@H]2C [Ex 8] | > 100 | 0.78 | > 100 | 12.5 | > 100 | > 100 | 0.39 | 0.78 | 0.78 | 0.1 | > 100 | > 100 |  | 0.78 |  | 3.1 | 0.78 |  | 0.78
